Test results as given in patent US20080125400A1, “USE OF PHOSPHOENOLPYRUVATE DERIVATIVES” (priority 2006, published 2008).

Test system: troponin I
Test: Randomized double-blind trial of PEPA in blood-based STH cardioplegia; blood troponin I by immunoassay (ADVIA Centaur)
Format: in vivo, human
Conditions: patients undergoing coronary artery bypass surgery; versus STH without PEPA
Description: A study was carried out to determine the effect of PEPA on heart tissue in patients with ischemic heart disease undergoing coronary artery bypass surgery. The study was a randomized, double-blind, parallel group, comparative trial that compared the effect during surgery (and shortly thereafter) of the presence or absence of a single dose of PEPA in blood-based STH.
The patients were assigned randomly to one of two groups. For the first group, PEPA was made up in a concentration of 495 μM/L as a single dose added to blood-based STH (“PEPA+STH”). Normal blood-based STH (without PEPA) was administered to the second group. There were 37 patients in each group.
PEPA was made up under sterile conditions in 40 ml of Ringer's solution and then filtered using a sterile 0.22 μm filter to sterilize the solution. Ten mL aliquots of the sterile PEPA solution were measured and added to each of three 1 L bags of Ringer's solution under sterile conditions providing a Ringer's solution containing 990 μM/L PEPA. […]
A sample of blood was collected from each patient at regular intervals during surgery (at the time of anaesthesia and at 6 and 12 hours after the start of surgery) and after surgery (at 24, 48 and 72 hours after the start of surgery). Each sample was analyzed by an immunoassay method using an ADVIA Centaur® system to determine the level of troponin I. […]

C=C(OP(=O)(O)O)C(N)=O [PEPA, 2-(dihydroxyphosphoryloxy)prop-2-enoic amide]
overall concentration of troponin I in the blood over the period studied: markedly reduces
